Reference: article PMC5844530, “Fosmetpantotenate (RE-024), a phosphopantothenate replacement therapy for pantothenate kinase-associated neurodegeneration: Mechanism of action and efficacy in nonclinical models” (PLoS ONE, 2018)
Several values for one entry are separate records, joined by “and”; a condition that tells them apart may be missing. Equal values may be shown once.

Legend:
[1] = Metabolic stability in human whole blood; assay type: in vitro ADME; settings: for Percentage Remaining: human whole blood, replicates 1 and 2, listed as Fosmetpantotenate Total
Protocol: (§1) Metabolic stability in blood and liver microsomes: Fosmetpantotenate or its individual diastereomers (5 μM, n = 2, 37°C) were incubated in mouse, rat, cynomolgus monkey, and human whole blood. Samples (50 μL) were taken at 0, 5, 15, 30, and 60 min. Incubations of fosmetpantotenate or its individual diastereomers (1 μM, n = 2, 37°C) in pooled liver microsomes (0.25 mg protein/mL in 0.1 M phosphate buffer pH 7.4) were initiated with the addition of nicotinamide adenine dinucleotide phosphate (NADPH; 1 mM). Aliquots (100 μL) were obtained at 0, 5, 10, 20, and 40 min and added to 150 μL of 0.1% formic acid in acetonitrile-containing carbamazepine (0.5 μM) as an analytical internal standard, centrifuged, and the supernatants analyzed by LC-MS/MS.
(§2) Bioanalysis for determinations of analyte stability: Samples were analyzed using a benchtop tandem quadrupole detector (TQD) mass spectrometer (Waters Ltd, Centennial Park, Hertfordshire). […] Suitable retention and peak shape with separation of the 2 diastereomers were obtained. The chromatography column was a Phenomenex-Kinetex XB C18 (2.10 x 50 mm; 2.6 μm), with a 0.7 mL/min flow rate and a 2 μL injection volume. […] The gradient was initiated with 20% B and increased linearly, reaching 40% B at 0.6 min, followed by 50% B at 0.8 min and by 95% B at 0.9 min. Conditions were kept isocratic through 1.2 min, returned to starting conditions (20% B) at 1.25 min, and maintained at 20% B through 1.5 min before the next injection. Since fosmetpantotenate is a mixture of diastereomers which are resolved chromatographically, the fosmetpantotenate MRM area corresponds to the sum of the MRM areas of the individual diastereomers.
(§3) The percent of compound remaining was determined from the MRM area response in each sample relative to that in the T = 0 samples (normalized for internal standard). Natural log plots of the percent compound remaining over time were used to determine the t½ of compound disappearance using the relationship t½ = -0.693/λ, where λ is the slope of the natural logarithm of the percent compound remaining vs time curve.

[2] = Metabolic stability in mouse liver microsomes; assay type: in vitro ADME; settings: pooled liver microsomes
Protocol: as §1
(§4) Bioanalysis for determinations of analyte stability: Samples were analyzed using a benchtop tandem quadrupole detector (TQD) mass spectrometer (Waters Ltd, Centennial Park, Hertfordshire). […] Suitable retention and peak shape with separation of the 2 diastereomers were obtained. The chromatography column was a Phenomenex-Kinetex XB C18 (2.10 x 50 mm; 2.6 μm), with a 0.7 mL/min flow rate and a 2 μL injection volume. […]
(§5) The percent of compound remaining was determined from the MRM area response in each sample relative to that in the T = 0 samples (normalized for internal standard). […]

[3] = Metabolic stability in mouse whole blood; assay type: in vitro ADME; settings: for Percentage Remaining: mouse whole blood, replicates 1 and 2, listed as Fosmetpantotenate Total
Protocol: as §1, §2, §3

[4] = Metabolic stability in monkey whole blood; assay type: in vitro ADME, cynomolgus monkey; settings: for Percentage Remaining: monkey whole blood, replicates 1 and 2, listed as Fosmetpantotenate Total
Protocol: as §1, with “Samples (50 μL) were taken at 0, 5, 15, 30, and 60 min.” left out
as §2, §3

[5] = Metabolic stability in human liver microsomes; assay type: in vitro ADME; settings: pooled liver microsomes
Protocol: as §1, §4, §5

[6] = pH 7.4, read-out: intrinsic clearance

COC(=O)CCNC(=O)[C@H](O)C(C)(C)COP(=O)(N[C@@H](C)C(=O)OC)Oc1ccccc1 (mixture of isomers) [Fosmetpantotenate]
half-life at 5 μM ([1]; human blood, 5 μM, 37°C, 60 min): 67 min | Percentage Remaining ([1]; 5 min): 103% and 90% | Percentage Remaining ([1]; 15 min): 114% and 99% | Percentage Remaining ([1]; 30 min): 77% and 71% | Percentage Remaining ([1]; 60 min): 56% and 55% | half-life at 1 μM ([2]; pH 7.4, 1 μM, NADPH): 11 min | microsomal CLint at 1 μM [2, 6]: 247 µL/min/mg | half-life at 5 μM ([3]; mouse blood, 5 μM, 37°C, 60 min): < 5 min | Percentage Remaining ([3]; 5 min): 1% | Percentage Remaining ([3]; 15 min): 1% | half-life at 5 μM ([4]; monkey blood, 5 μM, 37°C, 60 min): 41 min | Percentage Remaining ([4]; 5 min): 79% and 108% | Percentage Remaining ([4]; 15 min): 66% and 98% | Percentage Remaining ([4]; 30 min): 45% and 79% | Percentage Remaining ([4]; 60 min): 22% and 35% | Percentage Remaining ([4]; 90 min): 15% and 35% | Percentage Remaining ([4]; 120 min): 10% and 17% | half-life at 1 μM ([5]; pH 7.4, 1 μM, NADPH): 21 min | microsomal CLint at 1 μM [5, 6]: 134 µL/min/mg
